Assay results as given in patent US10189798B2, “Antimicrobial compounds, methods of making the same and articles comprising them” (MEDICAL TECHNOLOGY RESEARCH INC, priority 2014, dated 2019).

Tests used:
[1] = Discoloration on direct sunlight exposure; type: physicochemical; settings: for direct sunlight exposure withstood before any sign of discoloration: undiluted aqueous suspension, ~5500 ppm silver
Method: Silver-PDT powder (˜0.027 g) was transferred to the gel and hand-mixed to uniformity with a spatula to obtain clear to hazy gel. […] For DMCA, the tube was kept at ˜25° C. overnight for reaction completion. […] Considering that the amount of silver in the undiluted suspensions was ˜5500 ppm, the discoloration resistance can be considered extraordinary. In contrast, the undiluted suspension of Ag-PDT withstood 0.5 h of sunlight exposure before discoloration was visible. […] A suspension of Ag-MIC was prepared according to Example 13. […] A 2″×2″ piece of cotton gauze was soaked in the clear solution, blotted with paper towel to remove excess and dried at 55° C. for 0.25 to 0.5 h. In the same clear solution prepared separately, a filter paper strip was immersed, shaken and then dried at 55° C. for 0.25 h-0.5 h. Both substrates with silver-MIC were exposed to direct sunlight. […] Thus, in both instances following substrate impregnation, Ag-MIC still maintained robust light discoloration resistance. […] On a clean glass slide, a small volume (˜0.25 ml) was spread with a transfer pipet and left in an oven at 55° C. to dry for 0.5 h. The theoretical amount of silver in the dried coating was estimated at ˜2700 ppm. […] Such coating composition could be useful in providing antimicrobial surfaces. […] Similar sized piece of each dressing was pouched in foil and steam sterilized. After cooling to room temperature the samples were examined for discoloration. None was observed. […] Even after 4 h of direct sunlight exposure, no discoloration of the Ag-PDT impregnated paper was observed. The approximate theoretical amount of silver in the impregnated paper strip was ˜8700 ppm.

[2] = system: Staphylococcus aureus ATCC6538; assay: Zone of inhibition (ZOI) assay; type: cell-based; settings: for antimicrobial activity, qualitative: ZOI assay, S. aureus ATCC6538
Method: The antimicrobial activity of the antimicrobial silver s-triazine compounds was verified by standard zone of inhibition (ZOI) assay known to those skilled in the art. Briefly, in this assay, samples were placed on plates with proprietary agar formula (similar to Mueller Hinton Agar (MHA)) that were inoculated with bacteria and incubated at 37° C. overnight. If antimicrobial activity in the sample was present, it formed a clear zone around the edges. As negative control, the samples without the silver active compound were used. For primary screening of antimicrobial activity, the gram positive bacteria Staphylococcus aureus ATCC6538 was employed in the assay. To examine broad spectrum antimicrobial activity, various different types of organisms including gram negative Pseudomonas aeruginosa ATCC9027, Methicillin-Resistance Staphylococcus aureus (MRSA) and Vancomycin-Resistant Enterococci (VRE) could be employed. In investigating the broad spectrum activity, the ZOI assay is performed slightly differently. Instead of laying the samples on plates individually inoculated with different types of bacteria, the bacterial inoculums are streaked as parallel lines on one plate. After streaking the inoculum linearly, the samples are deposited as a continuous bead string in perpendicular direction to the streak lines. Evidence of antimicrobial activity in the sample is seen in the form of interruptions on both sides of the edges of the sample string.

[3] = Discoloration on heat exposure (55° C. / steam sterilization); type: physicochemical; settings: 550 ppm silver
Method: The sterilization of any samples (devices or compositions) comprising antimicrobial silver s-triazine compounds was carried out by steam sterilization. By subjecting test samples to steam sterilization, one can ascertain the ability of the antimicrobial silver s-triazine compounds to withstand thermal stresses. […] Thus, the test samples experienced nearly 3.5 h of hostile temperature condition. […] Silver-PDT powder (˜0.027 g) was transferred to the gel and hand-mixed to uniformity with a spatula to obtain clear to hazy gel. […] Similar sized piece of each dressing was pouched in foil and steam sterilized. After cooling to room temperature the samples were examined for discoloration. None was observed.

[4] = water, 25° C.
[5] = Discoloration on table lamp light exposure; type: physicochemical; settings: for time without discoloration under table lamp light: clear solution with ammonium hydroxide, ~5000 ppm silver, lamp at 12″
Method: Stock solutions (0.1M) of monosodium salts of DMCA, EIC and MIC were prepared. […] To accelerate anion exchange between sodium and silver cations, heating of liquids was carried out in microwave between ˜50° to 55° C. The tube contents were cooled and then to each tube neat ammonium hydroxide (0.1 ml) was added which caused the suspensions to clear for all three compounds. […] The theoretical content of silver in the clear solutions was ˜5000 ppm. To a 100 ml PP cup with stir bar, deionized water was added (13.2 ml).

[6] = Alginate sheet, Example 17, ~4500 ppm silver

Row | Structure (SMILES) | direct sunlight exposure without discoloration ([1]; impregnated cotton gauze, Example 14) [h] | direct sunlight exposure after which faint cream color registered ([1]; impregnated filter paper strip, Example 14) [h] | direct sunlight exposure withstood before any sign of discoloration [1] [h] | Zone width [2, 6] [mm] | Zone width ([2]; Cotton gauze, Example 14) [mm] | Zone width ([2]; Filter paper, Example 14) [mm] | Zone width ([2]; Gel, Example 15, 550 ppm silver) [mm] | antimicrobial activity, qualitative [2] | gel change at 55° C. ([3]; Laponite gel, 4 weeks) | aqueous solubility [4] [mg/L] | gel discoloration under table lamp light ([5]; Laponite gel, 550 ppm silver, overnight) | time without discoloration under table lamp light [5] [h] | gel discoloration in direct sunlight ([1]; carboxymethyl cellulose gel, 550 ppm silver, PP tubes) | discoloration as suspension temperature increased during photo-exposure ([1]; diluted suspension ~1350 ppm silver, temperature ~50° C.) | direct sunlight exposure without discoloration ([1]; impregnated thin paper strip, ~8700 ppm silver) [h] | direct sunlight exposure required before signs of discoloration ([1]; suspension diluted with deionized water, ~1350 ppm silver, PP tube) | gel discoloration at 55° C. ([3]; carboxymethyl cellulose gel, short term exposure)
1 | Cn1c(=O)[n-]c(=O)[nH]c1=O.[Ag+] [Ag-MIC] | > 3 | 1.5 | 1.5 | 9.5 | 5.5 | 8.0 | 2.5 | strong activity | practically unchanged | 48 | did not discolor | 72 | – | – | – | – | –
2 | O=c1nc(-c2ccccc2)[nH]c(=O)[n-]1.[Ag+] [Ag-PDT] | – | – | 0.5 | 5.5 | – | – | – | strong activity | – | – | – | – | no discoloration of gel was seen for up to an hour | no discoloration was seen | > 4 | over 4 h | did not show any gel discoloration
3 | CCn1c(=O)[n-]c(=O)[nH]c1=O.[Ag+] [Ag-EIC] | – | – | 1.5 | 8.5 | – | – | – | strong activity | – | 16.5 | – | 96 | – | – | – | – | –
